As a reminder, the IC50 is the concentration that inhibits the measured activity by half. Read a high IC50 as weaker potency.

One assay has as its target T1, human ENPP1 (Homo sapiens, UniProt P22413).
T1 construct: made in house
T1 sequence (P22413 1-925): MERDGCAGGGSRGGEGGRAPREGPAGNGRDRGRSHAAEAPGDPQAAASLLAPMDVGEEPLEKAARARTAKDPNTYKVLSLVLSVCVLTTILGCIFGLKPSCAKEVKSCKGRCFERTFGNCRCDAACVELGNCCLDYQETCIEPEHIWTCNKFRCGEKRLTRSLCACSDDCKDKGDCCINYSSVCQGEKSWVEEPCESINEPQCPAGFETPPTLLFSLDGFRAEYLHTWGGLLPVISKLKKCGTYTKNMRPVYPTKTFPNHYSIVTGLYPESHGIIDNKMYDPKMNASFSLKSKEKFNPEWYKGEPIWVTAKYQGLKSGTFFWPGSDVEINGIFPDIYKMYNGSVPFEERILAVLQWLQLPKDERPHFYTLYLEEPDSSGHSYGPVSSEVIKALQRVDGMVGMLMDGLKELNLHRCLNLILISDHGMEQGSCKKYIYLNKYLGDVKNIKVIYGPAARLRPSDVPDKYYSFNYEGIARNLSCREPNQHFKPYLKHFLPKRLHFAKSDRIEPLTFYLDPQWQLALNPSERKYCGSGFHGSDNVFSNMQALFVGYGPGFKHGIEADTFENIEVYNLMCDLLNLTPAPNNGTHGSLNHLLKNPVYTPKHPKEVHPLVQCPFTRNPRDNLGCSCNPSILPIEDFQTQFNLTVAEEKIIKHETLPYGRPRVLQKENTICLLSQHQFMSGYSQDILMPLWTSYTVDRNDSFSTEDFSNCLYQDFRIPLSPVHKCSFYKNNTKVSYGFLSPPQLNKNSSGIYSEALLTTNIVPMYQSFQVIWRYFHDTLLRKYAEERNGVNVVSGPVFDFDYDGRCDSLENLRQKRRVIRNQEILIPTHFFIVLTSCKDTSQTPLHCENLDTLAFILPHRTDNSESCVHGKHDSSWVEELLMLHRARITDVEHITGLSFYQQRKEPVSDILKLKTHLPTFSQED
The assay can be described thus: ENPP1 assay with ATP substrate (Transcreener AMP2/GMP2 TR-FRET). It is filed as biochemical. The settings on record: 1 hour at room temperature. The essentials: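 Reaction ran 1 h at room temperature in pH 7.5 Tris with MgCl2, TCEP, Tween 20 and 1% DMSO. ATP was added as a 300 nM stock and enzyme as an 8.5 μM stock. After EDTA stop, AMP was read by TR-FRET tracer displacement. Percent inhibition used enzyme/no-enzyme controls; IC50 was fitted with a variable slope.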

In the next assay the target is T2, ENPP3 (Homo sapiens, UniProt O14638).
T2 sequence (O14638 1-875): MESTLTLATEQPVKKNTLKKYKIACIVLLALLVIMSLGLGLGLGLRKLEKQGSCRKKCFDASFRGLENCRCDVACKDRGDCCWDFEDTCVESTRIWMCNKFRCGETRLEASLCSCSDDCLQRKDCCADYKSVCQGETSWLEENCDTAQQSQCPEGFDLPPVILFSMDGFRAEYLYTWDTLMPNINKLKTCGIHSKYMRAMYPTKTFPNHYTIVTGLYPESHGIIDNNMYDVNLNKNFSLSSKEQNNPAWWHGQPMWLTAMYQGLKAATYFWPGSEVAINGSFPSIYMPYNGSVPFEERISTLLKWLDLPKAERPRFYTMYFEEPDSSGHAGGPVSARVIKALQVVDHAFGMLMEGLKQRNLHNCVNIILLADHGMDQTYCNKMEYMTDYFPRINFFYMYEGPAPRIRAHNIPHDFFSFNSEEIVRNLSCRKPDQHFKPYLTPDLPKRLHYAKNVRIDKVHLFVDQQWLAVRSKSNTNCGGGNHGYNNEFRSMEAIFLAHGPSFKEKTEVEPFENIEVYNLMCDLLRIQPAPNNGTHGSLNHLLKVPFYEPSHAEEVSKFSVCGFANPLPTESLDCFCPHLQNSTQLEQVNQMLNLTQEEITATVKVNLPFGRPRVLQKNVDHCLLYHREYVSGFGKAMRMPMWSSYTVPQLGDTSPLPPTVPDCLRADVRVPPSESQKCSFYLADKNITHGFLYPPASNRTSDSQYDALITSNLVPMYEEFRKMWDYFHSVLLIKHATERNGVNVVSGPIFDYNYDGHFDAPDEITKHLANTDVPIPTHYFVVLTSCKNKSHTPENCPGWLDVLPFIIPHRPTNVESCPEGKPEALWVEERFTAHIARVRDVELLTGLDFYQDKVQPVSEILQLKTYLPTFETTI
Briefly: ENPP3 Km ATP assay. The class given is biochemical. To be noted: ATP at Km.

Each structure is given as a SMILES string.

On to `Cn1ncc2c(NCc3ccc(S(N)(=O)=O)cc3F)nc(Cl)nc21` [Example 2.140, 4-(((6-Chloro-1-methyl-1H-pyrazolo[3,4-d]pyrimidin-4-yl)amino)methyl)-3-fluorobenzenesulfonamide], for which the IC50 against human ENPP1 and against ENPP3 was 0.1 to 1 µM in each case.

For `NS(=O)(=O)c1ccc(CNc2cc(-c3ccccn3)nc3scc(-c4ccccc4)c23)cc1` [Example 1.47, 4-(((3-Phenyl-6-(pyridin-2-yl)thieno[2,3-b]pyridin-4-yl)amino)methyl)benzenesulfonamide], the IC50 on human ENPP1 is less than 0.1 µM; on ENPP3 it was 1 to 20 µM.

Regarding `NS(=O)(=O)c1ccc(CNc2nc(-c3ccccc3)nc3scc(-c4ccccc4)c23)s1` [Example 1.27, 5-(((2,5-Diphenylthieno[2,3-d]pyrimidin-4-yl)amino)methyl)thiophene-2-sulfonamide], the IC50 at human ENPP1 was 1 to 20 µM; against ENPP3, more than 20 µM.

`Cc1nsc2c(=O)n(Cc3ccc(S(N)(=O)=O)cc3)cnc12` [Example 3.60, 4-((3-Methyl-7-oxoisothiazolo[4,5-d]pyrimidin-6(7H)-yl)methyl)benzenesulfonamide]: the IC50 at human ENPP1 and against ENPP3 was 1 to 20 µM each time.

As for `NS(=O)(=O)c1ccc(CNc2nc(NC3CCCCC3)nc3scc(-c4ccccc4)c23)cc1` [Example 1.40, 4-(((2-(Cyclohexylamino)-5-phenylthieno[2,3-d]pyrimidin-4-yl)amino)methyl)-benzenesulfonamide], the IC50 was 0.1 to 1 µM at human ENPP1 and 1 to 20 µM against ENPP3.

In the case of `Cn1ncc2c(NCc3ccc(S(N)(=O)=O)cc3)nc(NCc3ccccc3)nc21` [Example 2.48, 4-(((6-(Benzylamino)-1-methyl-1H-pyrazolo[3,4-d]pyrimidin-4-yl)amino)methyl)-benzenesulfonamide], the IC50 at human ENPP1 and against ENPP3 was 0.1 to 1 µM throughout.

For the compound `COc1ccc(CCC(=O)NC2CCN(c3ncnc4c(C)csc34)CC2)cc1` [Example 3.31, 3-(4-Methoxyphenyl)-N-(1-(7-methylthieno[3,2-d]pyrimidin-4-yl)piperidin-4-yl)propanamide], the IC50 at human ENPP1 and against ENPP3 was more than 20 µM each time.

Regarding `NS(=O)(=O)c1ccc(CNc2ncnc3scc(-c4ccccc4)c23)cc1` [Example 1.46, 4-(((5-Phenylthieno[2,3-d]pyrimidin-4-yl)amino)methyl)benzenesulfonamide], the IC50 against human ENPP1 and at ENPP3 was less than 0.1 µM each time.

As for `Cc1csc2c(N3CCC(NC(=O)CCc4cccc(Cl)c4)CC3)ncnc12` [Example 3.18, 3-(3-Chlorophenyl)-N-(1-(7-methylthieno[3,2-d]pyrimidin-4-Y)piperidin-4-yl)propanamide], the IC50 at human ENPP1 and at ENPP3 was more than 20 µM each time.

Take `Cc1cccc(CCC(=O)NC2CCN(c3ncnc4c(C)csc34)CC2)c1` [Example 3.15, N-(1-(7-Methylthieno[3,2-d]pyrimidin-4-yl)piperidin-4-yl)-3-(m-tolyl)propanamide]: the IC50 on human ENPP1 and on ENPP3 was more than 20 µM throughout.

For the compound `Cn1ncc2c(NCc3ccc(S(N)(=O)=O)c(F)c3)ccnc21` [Example 2.67, 2-Fluoro-4-(((1-methyl-1H-pyrazolo[3,4-b]pyridin-4-yl)amino)methyl)benzenesulfonamide], the IC50 on human ENPP1 was less than 0.1 µM; against ENPP3, 0.1 to 1 µM.

Turning to `Cc1cccc(CCCNC2CCN(c3ncnc4c(C)csc34)CC2)c1` [Example 3.17, 1-(7-Methylthieno[3,2-d]pyrimidin-4-yl)-N-(3-(m-tolyl)propyl)piperidin-4-amine], the IC50 fell in the range of 0.1 to 1 µM against human ENPP1 and 1 to 20 µM on ENPP3.

For the compound `Fc1cccc(CNc2nc(-c3ccccn3)nc3scc(-c4ccccc4)c23)c1` [Example 1.9, (3-Fluoro-benzyl)-(5-phenyl-2-pyridin-2-yl-thieno[2,3-d]pyrimidin-4-yl)-amine], the IC50 against human ENPP1 and on ENPP3 was more than 20 µM in each case.

Consider `NS(=O)(=O)c1ccc(CNc2nc(N3CCOCC3)nc3scc(-c4ccccc4)c23)cc1` [Example 1.38, 4-(((2-Morpholino-5-phenylthieno[2,3-d]pyrimidin-4-yl)amino)methyl)-benzenesulfonamide], for which the IC50 at human ENPP1 and at ENPP3 was less than 0.1 µM throughout.

Consider `COc1cc(CCCNC2CCN(c3ncnc4c(C)csc34)CC2)ccn1` [Example 3.51, N-(3-(2-Methoxypyridin-4-yl)propyl)-1-(7-methylthieno[3,2-d]pyrimidin-4-yl)piperidin-4-amine], for which the IC50 against human ENPP1 was 0.1 to 1 µM; against ENPP3, more than 20 µM.

As for `Cc1cc(S(N)(=O)=O)ccc1CNc1nc(-c2ccccn2)nc2scc(-c3ccccc3)c12` [Example 1.15, 3-Methyl-4-(((5-phenyl-2-(pyridin-2-yl)thieno[2,3-d]pyrimidin-4-yl)amino)methyl)-benzenesulfonamide], the IC50 on human ENPP1 and at ENPP3 was 0.1 to 1 µM throughout.

As to `CCCCNc1cc(NCc2ccc(S(N)(=O)=O)cc2)c2cnn(C)c2n1` [Example 2.80, 4-(((6-(Butylamino)-1-methyl-1H-pyrazolo[3,4-b]pyridin-4-yl)amino)methyl)-benzenesulfonamide], the IC50 at human ENPP1 and against ENPP3 was 1 to 20 µM in each case.

In the case of `CN1CCN(c2nc(NCc3ccc(S(N)(=O)=O)cc3)c3cnn(C)c3n2)CC1` [Example 2.34, 4-(((1-Methyl-6-(4-methylpiperazin-1-yl)-1H-pyrazolo[3,4-d]pyrimidin-4-yl)amino)methyl)-benzenesulfonamide], the IC50 at human ENPP1 is more than 20 µM; against ENPP3, 0.1 to 1 µM.

Turning to `Cn1ncc2c(NCc3ccc(S(N)(=O)=O)s3)nc(Cl)nc21` [Example 2.85, 5-((6-Chloro-1-methyl-1H-pyrazolo[3,4-d]pyrimidin-4-yl)aminomethyl)thiophene-2-sulfonamide], the IC50 against human ENPP1 and on ENPP3 was 0.1 to 1 µM each time.

Take `Cn1nnc2c(NCc3ccc(S(N)(=O)=O)cc3)ncnc21` [Example 2.58, 4-(((3-Methyl-3H-[1,2,3]triazolo[4,5-d]pyrimidin-7-yl)amino)methyl)benzenesulfonamide]: the IC50 on human ENPP1 and against ENPP3 was 1 to 20 µM throughout.

As to `Cc1ccc(CNc2nc(-c3ccccn3)nc3scc(-c4ccccc4)c23)cc1` [Example 1.7, (4-Methyl-benzyl)-(5-phenyl-2-pyridin-2-yl-thieno[2,3-d]pyrimidin-4-yl)-amine], the IC50 at human ENPP1 and at ENPP3 was more than 20 µM in each case.

With `Cc1nsc2c(N3CCC(NCCCc4ccc(F)cc4)CC3)ncnc12` [Example 3.59, N-(3-(4-Fluorophenyl)propyl)-1-(3-methylisothiazolo[4,5-d]pyrimidin-7-yl)piperidin-4-amine], the IC50 at human ENPP1 is 1 to 20 µM; against ENPP3 it was more than 20 µM.

Turning to `CN(C)c1nc(NCc2ccc(S(N)(=O)=O)cc2)c2c(-c3ccccc3)csc2n1` [Example 1.43, 4-(((2-(Dimethylamino)-5-phenylthieno[2,3-d]pyrimidin-4-yl)amino)methyl)-benzenesulfonamide], the IC50 against human ENPP1 is less than 0.1 µM; on ENPP3, 0.1 to 1 µM.

For the origin of these results see patent publication US12643910B2, “Substituted pyrazolo[3,4-b]pyridines as ectonucleotide pyrophosphatase/phosphodiesterase 1 (ENPP1) modulators” (SANFORD BURNHAM PREBYS MEDICAL DISCOVERY INSTITUTE, priority 2019, dated 2026).
